Assay results published in US20130096067A1, “DROSOPHILA TUMOR STEM CELL MODEL AND USES THEREOF” (priority 2011, published 2013).

Test system: Raf-1^gof intestinal tumors
Settings: for Log2 (fold) (luciferase activity, log2 of the fold difference relative to DMSO controls) / Fold (luciferase activity, fold difference relative to DMSO controls): screen of 480 ICCB compounds in vials, compounds fed to flies with one-day old Raf-1^gof tumors, esg-Gal4 luciferase; for Log2 (fold) (luciferase activity, log2 of the fold difference relative to DMSO controls) / Fold (luciferase activity, fold difference relative to DMSO controls) / Log2 (fold) of luciferase activity relative to DMSO controls / Fold (luciferase activity relative to DMSO controls): assessed three days later; for Fold (luciferase activity, fold difference relative to DMSO controls) / Fold (luciferase activity relative to DMSO controls): averaged from multiple wells; for Log2 (fold) of luciferase activity relative to DMSO controls / Fold (luciferase activity relative to DMSO controls): ICCB compounds fed in vials to flies with one-day old Raf-1^gof tumors
Throughout, for Fold (luciferase activity relative to DMSO controls): test concentration or dose not given here.
Throughout, for Fold (luciferase activity, fold difference relative to DMSO controls): test concentration or dose not given here.
Throughout, for Log2 (fold) (luciferase activity, log2 of the fold difference relative to DMSO controls): test concentration or dose not given here.
Throughout, for Log2 (fold) of luciferase activity relative to DMSO controls: test concentration or dose not given here.

| SMILES | Log2 (fold) (luciferase activity, log2 of the fold difference relative to DMSO controls) | Fold (luciferase activity, fold difference relative to DMSO controls) | Log2 (fold) of luciferase activity relative to DMSO controls | Fold (luciferase activity relative to DMSO controls) | Fold (Table 3 summary of hits, Screen ICCB, luciferase relative to DMSO, fed three consecutive days in vials) |
| --- | --- | --- | --- | --- | --- |
| CCCCCC=CCC=CCC=CC=CC(=O)CCCC(=O)O [5-KETOEICOSATETRAENOIC ACID] | −0.316 | 0.803 | – | – | – |
| CCNC(=O)[C@H]1O[C@@H](n2cnc3c(N)ncnc32)[C@H](O)[C@@H]1O [5′-N-Ethylcarboxamidoadenosine (NECA)] | – | – | −0.024 | 0.983 fold | – |
| Br.NC1CCc2cc(O)c(O)cc2C1 (stereo not shown) [6,7-ADTN HBr] | −0.383 | 0.767 | – | – | – |
| O=Cc1c2[nH]c3ccccc3c2cc2[nH]c3ccccc3c12 [6-FORMYLINDOLO [3,2-B] CARBAZOLE] | −0.273 | 0.828 | – | – | – |
| CCCCC[C@H](O)/C=C/[C@@H]1[C@@H](CC(=O)CCCCC(=O)O)[C@@H](O)C[C@H]1O [6-KETO-PROSTAGLANDIN F1a] | −0.435 | 0.740 | – | – | – |
| CCCCCCCCCCC/C=C\C(C)(C)/C=C\CCCC(=O)O [7,7-DIMETHYLEICOSADIENOIC ACID] | – | – | 0.021 | 1.014 fold | – |
| CCCCC/C=C\C/C=C\CC1OC1C/C=C\CCCC(=O)O (stereo not shown) [8,9-EPOXYEICOSATRIENOIC ACID] | −0.625 | 0.649 | – | – | – |
| CCCCC[C@H](O)/C=C/[C@@H]1[C@H](C/C=C\CCCC(=O)O)[C@@H](O)C[C@H]1O [8-EPI-PROSTAGLANDIN F2a] | −0.657 | 0.634 | – | – | – |
| COCc1nc2c([nH]1)c(=O)n(C)c(=O)n2CC(C)C [8-methoxymethyl-IBMX] | – | – | 0.006 | 1.004 fold | – |
| CCCCC/C=C\C=C\[C@@H](O)CCCCCCCC(=O)O [9(S)-HODE] | −0.398 | 0.759 | – | – | – |
| CCCCC/C=C\C=C\[C@H](CCCCCCCC(=O)O)OO [9(S)-HPODE] | −0.294 | 0.816 | – | – | – |
| CCCCCCCC/C=C\CCCCCCCC(N)=O [9,10-OCTADECENOAMIDE] | −0.454 | 0.730 | – | – | – |
| CC1=C(/C=C/C(C)=C\C=C\C(C)=C\C(=O)O)C(C)(C)CCC1 [9-CIS RETINOIC ACID] | −0.578 | 0.670 | – | – | – |
| CCCCC[C@H](O)/C=C/[C@@H]1[C@@H](C/C=C\CCCC(=O)O)[C@@H](O)C[C@@H]1O [9a,11b-PROSTAGLANDIN F2] | −0.294 | 0.815 | – | – | – |
| CCCCC[C@H](O)/C=C/[C@@H]1[C@@H](C/C=C\CCCC(=O)O)[C@H](O)C[C@H]1O [9b,11a-PROSTAGLANDIN F2] | – | – | 0.062 | 1.044 fold | – |
| CC[C@@]1(O)C(=O)OCc2c1cc1n(c2=O)Cc2cc3cc(O)ccc3nc2-1 [10-hydroxycamptothecin, reference compound] | −0.930 | 0.525 | – | – | 0.525 fold |
| CCCCC/C=C\CC1OC1C/C=C\C/C=C\CCCC(=O)O (stereo not shown) [11,12-EPOXYEICOSATRIENOIC ACID] | – | – | −0.052 | 0.965 fold | – |
| CCCCC/C=C\C[C@@H](O)/C=C/C=C\C/C=C\CCCC(=O)O [12(R)-HETE] | −0.219 | 0.859 | – | – | – |
| CCCCC/C=C\C[C@H](O)/C=C/C=C\C/C=C\CCCC(=O)O [12(S)-HETE] | – | – | 0.055 | 1.039 fold | – |
| CCCCC/C=C\C[C@@H](/C=C/C=C\C/C=C\CCCC(=O)O)OO [12(S)-HPETE] | −0.571 | 0.673 | – | – | – |

| SMILES | Log2 (fold) (luciferase activity, log2 of the fold difference relative to DMSO controls) | Fold (luciferase activity, fold difference relative to DMSO controls) | Log2 (fold) of luciferase activity relative to DMSO controls | Fold (luciferase activity relative to DMSO controls) | Fold (Table 3 summary of hits, Screen ICCB, luciferase relative to DMSO, fed three consecutive days in vials) |
| --- | --- | --- | --- | --- | --- |
| COCCCCCCCCCCCC(=O)O [12-METHOXYDODECANOIC ACID] | −0.320 | 0.801 | – | – | – |
| CCCCC[C@H](O)/C=C/C=C\CCCCCCCC(=O)O [13(S)-HODE] | – | – | −0.141 | 0.907 fold | – |
| CCCCC[C@@H](/C=C/C=C\CCCCCCCC(=O)O)OO [13(S)-HPODE] | – | – | 0.309 | 1.239 fold | – |
| CCCCC[C@H](O)CC[C@H]1[C@H](O)CC(=O)[C@@H]1CCCCCCC(=O)O [13,14-DIHYDRO-PGE1] | – | – | 0.587 | 1.502 fold | – |
| CC1=C(/C=C/C(C)=C/C=C/C(C)=C\C(=O)O)C(C)(C)CCC1 [13-CIS RETINOIC ACID] | – | – | 0.074 | 1.053 fold | – |
| CCCCCC(=O)/C=C/C=C\CCCCCCCC(=O)O [13-KETOOCTADECADIENOIC ACID] | – | – | 0.320 | 1.248 fold | – |
| CCCCCC1OC1C/C=C\C/C=C\C/C=C\CCCC(=O)O (stereo not shown) [14,15-EPOXYEICOSATRIENOIC ACID] | – | – | 0.322 | 1.250 fold | – |
| CCCCC[C@H](O)/C=C/C=C\C/C=C\C/C=C\CCCC(=O)O [15(S)-HETE] | −0.309 | 0.807 | – | – | – |
| CCCCC[C@@H](/C=C/C=C\C/C=C\C/C=C\CCCC(=O)O)OO [15(S)-HPETE] | – | – | 0.361 | 1.285 fold | – |
| CCCCCC(=O)/C=C/C=C\C/C=C\C/C=C\CCCC(=O)O [15-KETOEICOSATETRAENOIC ACID] | −0.266 | 0.832 | – | – | – |
| CCCCC/C=C/C=C1/C(=O)C=C[C@@H]1C/C=C\CCCC(=O)O [15d-Prostaglandin J2] | – | – | 0.294 | 1.226 fold | – |
| CCCCC(C)(C)C(O)C=CC1C(O)CC(=O)C1CC=CCCCC(=O)O (stereo not shown) [16,16-DIMETHYL-PROSTAGLANDIN E2] | – | – | −0.013 | 0.991 fold | – |
| C=CCNC1=C2C[C@@H](C)C[C@H](OC)[C@H](O)[C@@H](C)/C=C(\C)[C@H](OC(N)=O)[C@@H](OC)/C=C\C=C(/C)C(=O)NC(=CC1=O)C2=O [17-Allylamino-geldanamycin] | −0.433 | 0.741 | – | – | – |
| C#CCCCCCCCCCCCCCCCC(=O)O [17-OCTADECYNOIC ACID] | −0.358 | 0.780 | – | – | – |
| O=C(O)CCC/C=C\C[C@H]1C(=O)C[C@@H](O)[C@@H]1/C=C/[C@@H](O)CCc1ccccc1 [17-PHENYL-TRINOR-PGE2] | −0.253 | 0.839 | – | – | – |
| CC(C)[C@@H](O)CC[C@@H](C)[C@H]1CC[C@H]2[C@@H]3CC=C4C[C@@H](O)CC[C@]4(C)[C@H]3CC[C@]12C [24(S)-hydroxycholesterol] | −0.244 | 0.844 | – | – | – |
| C=C1CCC(O)C/C1=C\C=C1\CCCC2(C)C1CCC2C(C)CCC(O)C(C)(C)O (stereo not shown) [24,25-DIHYDROXYVITAMIN D3] | −0.363 | 0.777 | – | – | – |
| C=C1CC[C@H](O)C/C1=C/C=C1\CCC[C@]2(C)[C@@H]([C@H](C)CCCC(C)(C)O)CC[C@@H]12 [25-HYDROXYVITAMIN D3] | – | – | −0.113 | 0.925 fold | – |
| CCCCC/C=C\C/C=C\C/C=C\C/C=C\CCCC(=O)N[C@H](C)CO [(R)-METHANANDAMIDE] | – | – | 0.068 | 1.049 fold | – |
